From patent US20060183119A1, “Method for determining predisposition to a physiological reaction in a patient” (UNIVERSITE LAVAL, priority 2002, published 2006)
Values joined by “and” are separate entries in the source; they are usually repeats but may differ in a detail not shown here. Equal entries are not always repeated. Where two headings read alike, the source gives them in different places.

Assays:
human liver microsomes [1] = test: SN-38 glucuronide formation by human liver microsome samples of patients; type: in vitro ADME; conditions: N 48
Source text: To obtain statistical data on interindividual variation of SN-38 glucuronidation, we measured the SN-38-G formation, as currently known in the background art, with microsomes preparations from each patient liver sample. The glucuronide formation rates were regrouped into ranges and every sample was categorized within these ranges.

human UGT1A9*1 = molecular target: T1, human UGT1A9*1 (Homo sapiens, UniProt O60656); conditions: SN-38 glucuronidation
T1 sequence (O60656 26-530): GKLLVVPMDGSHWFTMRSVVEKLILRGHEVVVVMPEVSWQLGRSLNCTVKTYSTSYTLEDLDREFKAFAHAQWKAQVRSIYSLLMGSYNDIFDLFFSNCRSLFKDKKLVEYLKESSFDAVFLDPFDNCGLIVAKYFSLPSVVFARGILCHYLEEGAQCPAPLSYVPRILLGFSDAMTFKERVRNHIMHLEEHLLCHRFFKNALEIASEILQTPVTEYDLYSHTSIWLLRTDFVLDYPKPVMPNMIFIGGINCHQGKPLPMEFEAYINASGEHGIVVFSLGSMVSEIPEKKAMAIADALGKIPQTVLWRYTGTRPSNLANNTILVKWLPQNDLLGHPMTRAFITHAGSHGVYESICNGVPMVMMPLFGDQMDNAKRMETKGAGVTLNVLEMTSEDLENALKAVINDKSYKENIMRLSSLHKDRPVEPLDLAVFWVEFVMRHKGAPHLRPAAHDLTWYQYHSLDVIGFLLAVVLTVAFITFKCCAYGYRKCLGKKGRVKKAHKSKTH
Experimental: Microsomal fractions from HEK-293 cells stably expressing human UGT1A9*1, UGT1A9*2 and UGT1A9*3 were used in enzymatic assays. Reactions (100 μl volume) contained 50 mM Tris-HCl, pH 7.3, 10 mM MgCl2, 100 μg/mL phosphatidylcholine, 1 mM UDP-glucuronic acid, 40 to 60 μg of membrane protein. […] Human liver microsome were incubated in the same condition for control. Reaction was stopped by the addition of 200 μL MeOH+1% HCl 2N, followed by centrifugation at 14000 rpm for 10 minutes. Supernatant was filtered through a 0.22 μm filter and 100 μL of water was added. For SN-38 and SN-38-glucuronide detection, 10 μL samples were injected on a liquid chromatographic system coupled to a fluorescence detector. Time-course experiments were realized to determine the linearity of the glucuronidation reaction.
A liquid chromatographic method was developed to quantify SN-38 glucuronidation of UGT cell line-derived microsomes and human liver microsomes. Samples were analyzed using high performance liquid chromatography (Alliance 2695, Waters, Milford, Mass.). […] At a constant flow rate (0.7 ml/min), a linear gradient from 20 to 65% B was run over 3 min, held 0.8 min and a second gradient until 95% of B was run over 2 min and then re-equilibrated to 20% B over 2 min. The effluent from the HPLC system (Alliance 2695) was connected directly to a fluorescence detector (Waters, Milford, Mass.) using an excitation wavelength of […] and an emission of 460 nm. […] Determination of the glucuronidation rates obtained with other substrates was performed as currently known in the art.
Microsomal fractions from HEK293 (40 to 60 μg) were added to a reaction mixture (100 μL) containing 50 mM Tris-HCl, pH 7.3, 10 mM MgCl2, 100 μg/mL phosphatidylcholine and 2 mM UDP-glucuronic acid. […] Commercially available human liver microsomes (Human Cell Culture Center Inc., Laurel, Md.) were incubated in the same conditions for all experiments. Time-course experiments were performed to determine the linearity of the glucuronidation reaction. For the determination of Vmax and Km. HEK293 cells stably expressing UGT1A9 enzymes were incubated in the presence of various concentrations of SN-38 ranging from 0.1 to 200 μM and incubated for 30 min as described above whereas UGT1A7 membranes preparations were incubated for 3 hours. […] For the detection of SN-38 and its glucuronide (SN-38G), 10 μL samples were injected in a liquid chromatographic system (HPLC) coupled to fluorescence detector as described below.
A HPLC method was developed to quantify the rates of SN-38 glucuronidation from the various microsomal fractions under study. […] The column was connected to a fluorescence detector model 474 (Waters, Milford, Mass.) and the molecules were excited at a wavelength of 370 nm and an emission of 425 nm.

human liver microsomes [2] = test: SN-38 glucuronidation kinetics with commercially available human liver microsomes; type: in vitro ADME
Source text: For the determination of Vmax and Km.

CCc1c2c(nc3ccc(O)cc13)-c1cc3c(c(=O)n1C2)COC(=O)[C@]3(O)CC [SN-38, 7-ethyl-10-hydroxycamptothecin]
SN-38 glucuronide formation, glucuronidation rate, Mean (human liver microsomes [1]): 0.61 pmol/mg of protein/minute and 0.6118 pmol/mg of protein/minute | SN-38 glucuronide formation, quantile 0.0% minimum (human liver microsomes [1]): 0.1063 pmol/mg of protein/minute | SN-38 glucuronide formation, quantile 0.5% (human liver microsomes [1]): 0.1063 pmol/mg of protein/minute | SN-38 glucuronide formation, quantile 2.5% (human liver microsomes [1]): 0.1113 pmol/mg of protein/minute | SN-38 glucuronide formation, quantile 10.0% (human liver microsomes [1]): 0.1641 pmol/mg of protein/minute | SN-38 glucuronide formation, quantile 25.0% quartile (human liver microsomes [1]): 0.2763 pmol/mg of protein/minute | SN-38 glucuronide formation, quantile 50.0% median (human liver microsomes [1]): 0.4204 pmol/mg of protein/minute | SN-38 glucuronide formation, quantile 75.0% quartile (human liver microsomes [1]): 0.9279 pmol/mg of protein/minute | SN-38 glucuronide formation, quantile 90.0% (human liver microsomes [1]): 1.5699 pmol/mg of protein/minute | SN-38 glucuronide formation, quantile 97.5% (human liver microsomes [1]): 1.9309 pmol/mg of protein/minute | SN-38 glucuronide formation, quantile 99.5% (human liver microsomes [1]): 1.9735 pmol/mg of protein/minute | SN-38 glucuronide formation, quantile 100.0% maximum (human liver microsomes [1]): 1.9735 pmol/mg of protein/minute | Vmax (human UGT1A9*1; 0.1 to 200 μM, mean±SD): 316.34±52.03 pmol/min/mg protein | Km (human UGT1A9*1; Table 5): 3.03 ± 0.72 µM | Vmax (human UGT1A9*1; Table 5): 316.34 ± 52.03 | Km (human UGT1A9*1; read-out: Apparent Km, 0.1 to 200 μM, mean±SD, Lineweaver-Burk): 3.03 µM and 3.02 µM | Km (human liver microsomes [2]; SN-38, LCQ detector): 6.8 ± 3 µM | Km (human liver microsomes [2]; SN-38, fluorescent detection): 4.8 ± 0.8 µM
